Laboratory results reported in patent US11319551B2, “Methods and compositions for PPO herbicide tolerance in plants” (Monsanto Technology LLC, priority 2015, dated 2022).

Experiments:
[1] = molecular target: soybean PPO; assay: PPO enzyme assay, plant plastid extract; format: biochemical, Glycine max; settings: 3 μM protogen, 30° C., read-out: S-3100 IC50
Experimental: (§1) Plant plastid extract was produced used etioplasts and chloroplasts that were prepared from etiolated cotyledons (soybean, Glycine max), etiolated leaves/coleoptiles (corn, Zea mays) and unfolded apical leaves (A. tuberculatus) generally by the procedure described by Grossmann (2010). Soybean (A3555) and corn (LH244) seeds were placed between two sheets of moist germination paper (Anchor Paper Company, Saint Paul, Minn.) in a beaker of water in continuous darkness for eight to ten days. A. tuberculatus plants were grown for 30 days in the greenhouse. Tissue was collected, placed between moist sheets of paper towels and ground to fine powder with a mortar and pestle in liquid nitrogen. Homogenization buffer (50 mM Tris-HCl, pH 7.4, 500 mM sucrose, 1 mM EDTA, 1 mM magnesium chloride, and 2 g/liter bovine serum albumin) was added to the frozen powder at 4:1 (ml homogenization buffer to g fresh weight tissue), mixed vigorously and filtered through four layers of pre-moistened Miracloth. The filtrate was centrifuged at 9299 g for five minutes. The pellet was resuspended in homogenization buffer and centrifuged at 150 g for two minutes. The supernatant solution was centrifuged at 4000 g for fifteen minutes. All centrifugation steps were carried out a 4° C. […]

[2] = molecular target: corn PPO; assay: PPO enzyme assay, plant plastid extract; format: biochemical, Zea mays; settings: 3 μM protogen, 30° C., read-out: S-3100 IC50
Experimental: as §1

[3] = molecular target: E. coli HemG (Escherichia coli, UniProt P0ACB4); assay: PPO enzyme assay, bacterial extract
E. coli HemG, sequence (P0ACB4 whole entry): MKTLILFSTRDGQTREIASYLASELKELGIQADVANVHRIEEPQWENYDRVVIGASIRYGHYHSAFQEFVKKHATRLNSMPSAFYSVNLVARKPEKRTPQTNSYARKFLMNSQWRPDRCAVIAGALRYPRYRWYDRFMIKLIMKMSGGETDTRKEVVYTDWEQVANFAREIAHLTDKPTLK
Experimental: (§2) This assay used recombinant HemY PPO proteins with plant plastid extract and PPO substrate to identify protoporphyrinogen oxidases that had activity in the presence of a PPO herbicide.
(§3) Recombinant PPO enzymes were expressed in E. coli HemG knockout cell line and extracted for the enzyme assay. Bacterial cells from an overnight culture were used to inoculate 20 ml of fresh media. These cultures were allowed to grow for approximately 48 hrs at 20° C. to a dense culture. Bacterial cells were collected by centrifugation and the cell pellets stored at −80° C. until enzyme assays were performed. Frozen bacterial pellets were resuspended in extraction buffer (50 mM Tris-HCl, pH 7.6, 1 mM EDTA & 1 mM MgCl2) and sonicated (Sonics VibraCell™) for 30 seconds in an ice bath with a one-minute rest period between cycles. For E. coli transformed with a construct encoding E. coli HemG (SEQ ID NO: 76) the broken cells were centrifuged at 200 g for 2 minutes at 4° C. and the supernatant solution was used for PPO enzyme assays after dilution with extraction buffer. […]
(§4) A PPO enzyme assay was conducted to measure PPO activity using the plant plastid extract and bacterial extract preparations with the PPO substrate. PPO activity was measured generally as described by Grossmann (2010).

[4] = system: R2N30; assay: PPO enzyme assay, bacterial extract
Experimental: as §2, §3, §4

[5] = system: R2N40; assay: PPO enzyme assay, bacterial extract
Experimental: as §2, §3, §4

[6] = read-out: S-3100 IC50, bacterial extract, 3 μM protogen, 37° C.

CCOC(=O)COc1ncccc1Oc1cc(-n2c(=O)cc(C(F)(F)F)n(C)c2=O)c(F)cc1Cl [S-3100]
IC50 [1]: 4 nM
IC50 [2]: 3 nM
IC50 [3]: > 100000 nM
less sensitive to the herbicide than the plant PPO enzymes ([4]; R2N30 versus plant PPO enzymes): 10 fold
IC50 [4, 6]: 20 nM
less sensitive to the herbicide than the plant PPO enzymes ([5]; R2N40 versus plant PPO enzymes): 10 fold
IC50 [5, 6]: 40 nM
